This experiment has as its system GLXMA (Glycine max; soybean plant). Briefly: Greenhouse spray test of glufosinate efficacy on soybean plants under different nitrogen supply. The experiment is classed as in vivo. Conditions: GF-solution 280 g/l glufosinate-ammonium, 300 g a.i./ha, water rate 200 l/ha, assessed 3 and 7 daa (time of this value not stated). Here is the method:
GLXMA (Glycine max; soybean plant) plants were grown on soil in a green house. Before separation into single pots plants were watered with demineralized water (VE-water). After separation into single pots and splitting into four different nourishing groups, the pots were individually watered with 50 ml of the respective nutrient solution. The following recipe for the full-nutrient solution (5 mM N) mentioned in the book “Diagnose des Ernährungszustandes von Kulturpflanzen”, ISBN: 978-3-86263-118-6, table 3-2, page 94 has been used:
Plants were grown until the growth stage GS 61 (58-74 cm), where first symptoms of nutrient deficiency became visible. This included yellowing of the leaves which were watered with N-deficient media.
A spray application was performed in a high speed spray cabin with the following settings: used nozzle: TT 110 02; pressure: 3 bar; speed: 1.33 m/s; temperature: 22° C.; relative spray humidity: 55%
Spray solution: A GF-solution comprising 280 g/l glufosinate-ammonium is sprayed with an a.i. dose rate of 300 g/ha and a water rate of 200 l/ha. The control plants were sprayed with water (ddH2O) only. After spraying, all plants were watered with VE-water. A biological assessment was performed 3 and 7 days after application (daa).
In other words, to achieve an N-deficiency, the plants were separated in four different groups, which were watered with 4 different nutrient solutions. The “full” medium contained a final concentration of 5 mM N nitrogen-sources, whereas the N-deficiency media contained either 0 mM N (“null” medium) or 1.25 mM N and 2.5 mM N (“deficiency” media). Nutrient deficiency became visible at the GS 61.
In FIGS. 2 and 3, GLXMA is Glycine max (soybean plant), G ai/ha is grams of active ingredient per hectare, CWD is the control group without treatment, GF-Solution is the solution comprising 280 g/l glufosinate-ammonium. At full (5 mM) or half full (2.5 mM) nitrogen supply was detected and rated to an average of 35. Lowering the nitrogen supply to a level of 1.25 mM increases the efficacy of glufosinate to 48, which is visibly by more chlorotic and necrotic tissue. Under complete nitrogen deficiency the symptoms are boosted and result in an average efficacy rating of 75.

From patent publication US20240248442A1, “COMPUTER-IMPLEMENTED METHOD FOR APPLYING A GLUTAMINE […] ON AN AG[…]” (BASF SE, priority 2021, published 2024) come the findings set out here.

For the compound `CP(=O)(O)CCC(N)C(=O)O` (racemic) [glufosinate, (2RS)-2-amino-4-[hydroxy-(methyl)phosphinoyl]butyric acid], the “average efficacy rating (biological assessment)” value amounted to 75 (complete nitrogen deficiency (0 mM N)), 35 (full (5 mM) nitrogen supply), 35 (half full (2.5 mM) nitrogen supply) and 48 (nitrogen supply 1.25 mM).
